pIC50: −log10 of the molar value. Structures can show the parent of a compound that is named as a salt. One block for each molecule: values may come before it.
What was measured:
[1] = Effects of antioxidants on degradation of CYT-0387 Form II in aqueous solution (HPLC); format: physicochemical
Method: This was determined from the study that investigated the potential effects of different antioxidants in inhibiting or preventing degradation of CYT-0387 dihydrochloride monohydrate Form II. In the initial study, five antioxidants of three different mechanisms of action were examined: free radical scavenger antioxidants (propyl gallate, butylated hydroxyanisole (BHA), and butylated hydroxytoluene (BHT)), a sacrificial reductant (ascorbic acid), and an oxygen scavenger (sodium metabisulfite).
Aqueous solutions containing 20 μg/mL of CYT-0387 dihydrochlorid monohydrate Form II in 70% (v/v) 50 mM acetate buffer (pH 4.0) and 30% (v/v) methanol were incubated in absence (which was used as control) and presence of 0.1% (w/v) antioxidant at 60° C. for up to 7 days. At Day 0, 5 and 7, the solution was analyzed using a reverse-phase HPLC with a Zorbax SB-C8 column ([…].). […] While total degradation products could not be determined for 0.1% ascorbic acid due to interference, the main oxidative degradation products were not observed (data not shown).
In additional studies, the effects of the lower concentrations of 0.01% and 0.001% (w/v) of propyl gallate, BHA, and ascorbic acid on the stability of CYT-0387 were examined under the same condition. […] Moreover, at 0.001% (w/v) antioxidant level, the presence of propyl gallate decreased or inhibited the degradation of CYT-0387 relative to BHA and ascorbic acid (Table 7).

[2] = Stability of 100 mg tablet formulation with different propyl gallate levels; format: physicochemical; settings: for Total Degradation: 100 mg tablet, 40° C./75% RH
Method: Next, the stability of 100 mg tablet formulation comprising CYT-0387 Form II was examined in the presence of 0%, 0.2%, 0.5%, or 1.0% propyl gallate at 25° C./60% RH (relative humidity) or 40° C./75% RH for up to 6 months. The degradation profiles were determined at month 0, 1, 3, and 6.

[3] = Phase 1 single dose PK study, Form II tablets vs Form I capsule, healthy subjects; settings: human, in vivo
Method: Tablets comprising CYT-0387 dihydrochloride monohydrate Form II (doses equivalent to 100, 150, 200, and 300 mg of the free base) and capsules comprising CYT-0387 dihydrochloride anhydrous Form I (dose equivalent to 300 mg of the free base) were evaluated in a Phase 1, single dose study in healthy subjects.
Intensive PK and PD sampling occurred from 0.5 hour up to 36 hours post dose. Safety was monitored throughout the study. A parametric analysis of variance (ANOVA) using a mixed-effects model was used to fit to the natural logarithmic transformation of PK parameters (AUC and Cmax). The 90% confidence intervals were constructed for the ratio of geometric means of CYT-0387 dihydrochloride monohydrate Form II tablets at 100, 150, 200 and 300 mg vs CYT-0387 dihydrochloride anhydrous Form I capsule at 300 mg, using equivalence bounds of 70% to 143% for AUC and Cmax. The pharmacokinetic data is represented in Table 5.

[4] = tested on: hepcidin production in HepG2 cells; assay: BMP6-mediated hepcidin induction in HepG2 cells (qRT-PCR); format: cell-based; settings: for hepcidin fold-change induction (normalized percentage): HepG2, 10 ng/mL BMP6 6 hours, 100% = vehicle
From the text: This study characterized the effect of CYT-0387 on hepcidin production in HepG2 cells, a hepatocellular carcinoma cell line. Bone morphogenic proteins (BMPs) is shown to be involved in the transcriptional induction of hepcidin in hepatocytes by facilitating the association of constitutively active Type-II BMP receptor kinases (BMPR-kinase) with Type-I BMPR-kinase (Andriopoulos, et al. Nat Genet, 2009. 41(4): p482-7; Zhao, et al., J Clin Invest, 2013. 123(6): p2337-43).
HepG2 cells were preincubated for 2 hours with CYT-0387 (ranging from 0 μM to 10 μM) in the presence of 1% FBS then stimulated for 6 hours with 10 ng/mL of BMP6. Total RNA was isolated from the cells and analyzed for the levels of hepcidin by qRT-PCR. GUSB (glucuronidase, beta) was used as a house keeping control to normalize the levels measured by qRT-PCR. The percentage of hepcidin fold-change induction was calculated (100% is equal to hepcidin induction in vehicle treated cells) and summarized in Table 9.

ALK2 (Acvr1) = ALK2 (Acvr1) (Homo sapiens (Human), UniProt Q04771); assay: In vitro enzyme inhibition assay (LanthaScreen); format: biochemical; settings: n = 3
Sequence of ALK2 (Acvr1) (Q04771 21-509): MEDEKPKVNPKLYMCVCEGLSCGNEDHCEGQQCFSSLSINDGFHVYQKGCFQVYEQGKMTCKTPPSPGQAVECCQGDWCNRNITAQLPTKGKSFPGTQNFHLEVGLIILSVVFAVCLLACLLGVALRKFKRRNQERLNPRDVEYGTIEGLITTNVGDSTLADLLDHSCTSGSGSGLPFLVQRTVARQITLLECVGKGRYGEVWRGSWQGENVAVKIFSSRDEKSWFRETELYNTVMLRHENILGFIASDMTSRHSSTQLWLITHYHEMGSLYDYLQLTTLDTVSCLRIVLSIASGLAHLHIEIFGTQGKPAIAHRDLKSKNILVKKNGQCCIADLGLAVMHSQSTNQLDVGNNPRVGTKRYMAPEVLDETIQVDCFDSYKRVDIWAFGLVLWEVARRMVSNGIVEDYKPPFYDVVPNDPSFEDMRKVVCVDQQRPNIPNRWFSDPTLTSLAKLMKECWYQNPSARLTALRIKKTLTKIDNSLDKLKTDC
Method: (§1) In addition, biochemical binding assays (DiscoveRx) and in vitro enzyme inhibition assays (LanthaScreen, Life Technologies) were conducted to determine the binding affinity and inhibition activities of CYT-0387 to Type-I BMPR-kinases (ALK2, ALK3, and ALK6) were conducted. Transforming growth factor beta receptor 1 (TGFBR1, ALK5) was used as a control to determine the selectivity to Type-I BMPR-kinases.

ALK6 (BMPR1B) = ALK6 (BMPR1B) (Homo sapiens (Human), UniProt O00238); assay: In vitro enzyme inhibition assay (LanthaScreen); format: biochemical; settings: n = 3
Sequence of ALK6 (BMPR1B) (O00238 14-502): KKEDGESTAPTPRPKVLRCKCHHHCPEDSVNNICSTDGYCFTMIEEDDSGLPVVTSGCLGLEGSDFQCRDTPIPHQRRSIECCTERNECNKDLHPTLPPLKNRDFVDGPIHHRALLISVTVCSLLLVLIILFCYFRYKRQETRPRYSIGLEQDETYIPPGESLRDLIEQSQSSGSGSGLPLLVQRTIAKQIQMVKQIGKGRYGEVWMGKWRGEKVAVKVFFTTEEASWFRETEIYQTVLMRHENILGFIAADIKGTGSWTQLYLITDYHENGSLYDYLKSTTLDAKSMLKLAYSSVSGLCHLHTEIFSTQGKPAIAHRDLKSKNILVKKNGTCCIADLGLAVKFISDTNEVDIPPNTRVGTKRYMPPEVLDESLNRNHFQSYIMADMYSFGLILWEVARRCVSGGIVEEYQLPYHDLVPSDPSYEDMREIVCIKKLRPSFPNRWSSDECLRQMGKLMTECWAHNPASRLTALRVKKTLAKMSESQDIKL
Method: as §1

main oxidative degradation products ([1]; 0.1% ascorbic acid, 60° C. (data not shown)): not observed
amount degraded ([1]; in the presence of 0.1% (w/v) propyl gallate or BHA, 60° C., up to 7 days): Less than one percent
Total Degradation ([1]; pH 4 aqueous buffer, 60° C., control, no antioxidant, day 0): 0.29%
Total Degradation ([1]; pH 4 aqueous buffer, 60° C., control, no antioxidant, day 5): 17.24%
Total Degradation ([1]; pH 4 aqueous buffer, 60° C., control, no antioxidant, day 7): 21.84%
Total Degradation ([1]; pH 4 buffer, 60° C., BHA 0.001% w/v, day 0): 0.30%
Total Degradation ([1]; pH 4 buffer, 60° C., BHA 0.001% w/v, day 5): 7.64%
Total Degradation ([1]; pH 4 buffer, 60° C., BHA 0.001% w/v, day 7): 13.76%
Total Degradation ([1]; pH 4 buffer, 60° C., BHA 0.01% w/v, day 0): 0.55%
Total Degradation ([1]; pH 4 buffer, 60° C., BHA 0.01% w/v, day 5): 1.75%
Total Degradation ([1]; pH 4 buffer, 60° C., BHA 0.01% w/v, day 7): 3.04%
Total Degradation ([1]; pH 4 buffer, 60° C., BHA 0.1% w/v, day 0): 0.45%
Total Degradation ([1]; pH 4 buffer, 60° C., BHA 0.1% w/v, day 5): 0.50%
Total Degradation ([1]; pH 4 buffer, 60° C., BHA 0.1% w/v, day 7): 1.24%
Total Degradation ([1]; pH 4 buffer, 60° C., BHT 0.1% w/v, day 0): 0.06%
Total Degradation ([1]; pH 4 buffer, 60° C., BHT 0.1% w/v, day 5): 1.71%
Total Degradation ([1]; pH 4 buffer, 60° C., BHT 0.1% w/v, day 7): 4.35%
Total Degradation ([1]; pH 4 buffer, 60° C., ascorbic acid 0.001% w/v, day 0): 0.51%
Total Degradation ([1]; pH 4 buffer, 60° C., ascorbic acid 0.001% w/v, day 5): 17.95%
Total Degradation ([1]; pH 4 buffer, 60° C., ascorbic acid 0.001% w/v, day 7): 21.28%
Total Degradation ([1]; pH 4 buffer, 60° C., ascorbic acid 0.01% w/v, day 0): 0.20%
Total Degradation ([1]; pH 4 buffer, 60° C., ascorbic acid 0.01% w/v, day 5): 1.58%
Total Degradation ([1]; pH 4 buffer, 60° C., ascorbic acid 0.01% w/v, day 7): 1.78%
Total Degradation ([1]; pH 4 buffer, 60° C., propyl gallate 0.001% w/v, day 0): 0.22%
Total Degradation ([1]; pH 4 buffer, 60° C., propyl gallate 0.001% w/v, day 5): 1.98%
Total Degradation ([1]; pH 4 buffer, 60° C., propyl gallate 0.001% w/v, day 7): 4.32%
Total Degradation ([1]; pH 4 buffer, 60° C., propyl gallate 0.01% w/v, day 0): 0.22%
Total Degradation ([1]; pH 4 buffer, 60° C., propyl gallate 0.01% w/v, day 5): 0.38%
Total Degradation ([1]; pH 4 buffer, 60° C., propyl gallate 0.01% w/v, day 7): 0.72%
Total Degradation ([1]; pH 4 buffer, 60° C., propyl gallate 0.1% w/v, day 0): 0.29%
Total Degradation ([1]; pH 4 buffer, 60° C., propyl gallate 0.1% w/v, day 5): 0.31%
Total Degradation ([1]; pH 4 buffer, 60° C., propyl gallate 0.1% w/v, day 7): 0.32%
Total Degradation ([1]; pH 4 buffer, 60° C., sodium metabisulfite 0.1% w/v, day 0): 0.33%
Total Degradation ([1]; pH 4 buffer, 60° C., sodium metabisulfite 0.1% w/v, day 5): 43.83%
Total Degradation ([1]; pH 4 buffer, 60° C., sodium metabisulfite 0.1% w/v, day 7): 46.31%
Total Degradation ([2]; propyl gallate 0%, month 0): 0.10%
Total Degradation ([2]; propyl gallate 0%, month 1): 0.68%
Total Degradation ([2]; propyl gallate 0%, month 3): 1.01%
Total Degradation ([2]; propyl gallate 0%, month 6): 1.28%
Total Degradation ([2]; propyl gallate 0.2%, month 0): 0.10%
Total Degradation ([2]; propyl gallate 0.2%, month 1): 0.34%
Total Degradation ([2]; propyl gallate 0.2%, month 3): 0.67%
Total Degradation ([2]; propyl gallate 0.2%, month 6): 0.80%
Total Degradation ([2]; propyl gallate 0.5%, month 0): 0.11%
Total Degradation ([2]; propyl gallate 0.5%, month 1): 0.39%
Total Degradation ([2]; propyl gallate 0.5%, month 3): 0.67%
Total Degradation ([2]; propyl gallate 0.5%, month 6): 0.95%
Total Degradation ([2]; propyl gallate 1.0%, month 0): 0.14%
Total Degradation ([2]; propyl gallate 1.0%, month 1): 0.44%
Total Degradation ([2]; propyl gallate 1.0%, month 3): 0.87%
Total Degradation ([2]; propyl gallate 1.0%, month 6): 1.34%
degradation in 100 mg tablet ([2]; 25° C./60% RH, propyl gallate at 0.2%, 0.5%, and 1.0% (data not shown)): reduced
bioavailability compared to CYT-0387 dihydrochloride anhydrous Form I and CYT-0387 free base [3]: increased bioavailability
SMILES: N#CCNC(=O)c1ccc(-c2ccnc(Nc3ccc(N4CCOCC4)cc3)n2)cc1 [CYT-0387 Form II, N-(cyanomethyl)-4-(2-(4-morpholinophenylamino)pyrimidin-4-yl)benzamide dihydrochloride monohydrate Form II]

pIC50 (ALK2 (Acvr1)): 8.10
pIC50 (ALK6 (BMPR1B)): 6.97
SMILES: N#CCNC(=O)c1ccc(-c2ccnc(Nc3ccc(N4CCOCC4)cc3)n2)cc1 [CYT-0387, N-(cyanomethyl)-4-(2-(4-morpholinophenylamino)pyrimidin-4-yl)benzamide]
effect on BMP6-mediated hepcidin induction ([4]; 0 μM to 10 μM, HepG2): dose-dependent inhibition
hepcidin fold-change induction (normalized percentage) ([4]; 0.020 μM): 115%
hepcidin fold-change induction (normalized percentage) ([4]; 0.039 μM): 91%
hepcidin fold-change induction (normalized percentage) ([4]; 0.078 μM): 74%
hepcidin fold-change induction (normalized percentage) ([4]; 0.156 μM): 86%
hepcidin fold-change induction (normalized percentage) ([4]; 0.313 μM): 89%
hepcidin fold-change induction (normalized percentage) ([4]; 0.625 μM): 45%
hepcidin fold-change induction (normalized percentage) ([4]; 1.25 μM): 28%
hepcidin fold-change induction (normalized percentage) ([4]; 2.5 μM): 6%
hepcidin fold-change induction (normalized percentage) ([4]; 5.0 μM): −4%
hepcidin fold-change induction (normalized percentage) ([4]; 10.0 μM): −3%

From patent US9469613B2, “(N-(cyanomethyl)-4-(2-(4-morpholinophenylamino)pyrimidin-4-yl)benzamide” (Gilead Sciences, Inc., priority 2014, dated 2016)
